Structures can show the parent of a compound that is named as a salt.
Columns and labels:
[1] = target: T1, furin (endogenous protease) in U20S cells (Homo sapiens, UniProt P09958); assay: Furin cell-based assay (image-based, Golgi-targeted GFP with BMP10 furin/PCSK cleavage site); conditions: 24-hour incubation, read-out: furin golgi cell pXC50 (converted);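 also: Read-out is mean GFP fluorescence of Golgi puncta per cell by high-content imaging, retained when furin inhibited, over an eleven-point 0.00017–10 µM series, four-parameter fit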
T1 construct: the endogenous protease cleaves GFP; endogenous in cells; host or cells: U2OS cells transduced with a BacMam reporter
T1 sequence (P09958 108-794): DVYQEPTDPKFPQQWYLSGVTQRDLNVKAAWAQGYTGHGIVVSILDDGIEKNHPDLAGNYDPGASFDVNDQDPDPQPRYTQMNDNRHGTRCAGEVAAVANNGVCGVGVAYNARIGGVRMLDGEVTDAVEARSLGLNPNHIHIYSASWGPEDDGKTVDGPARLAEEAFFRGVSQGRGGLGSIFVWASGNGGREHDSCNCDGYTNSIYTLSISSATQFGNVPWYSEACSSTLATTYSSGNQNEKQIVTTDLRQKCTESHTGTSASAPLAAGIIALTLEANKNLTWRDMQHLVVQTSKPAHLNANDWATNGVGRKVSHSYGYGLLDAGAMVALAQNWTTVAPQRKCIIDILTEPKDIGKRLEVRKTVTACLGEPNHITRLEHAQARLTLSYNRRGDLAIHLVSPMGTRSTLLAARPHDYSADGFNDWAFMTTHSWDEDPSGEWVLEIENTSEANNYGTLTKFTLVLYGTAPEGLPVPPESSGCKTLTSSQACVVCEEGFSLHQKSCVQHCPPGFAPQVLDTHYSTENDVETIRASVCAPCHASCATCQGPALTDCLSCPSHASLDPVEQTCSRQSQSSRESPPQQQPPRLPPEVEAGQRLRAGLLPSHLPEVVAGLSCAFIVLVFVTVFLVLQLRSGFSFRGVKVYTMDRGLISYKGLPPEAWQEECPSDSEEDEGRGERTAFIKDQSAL

[2] = target: T2, Furin (108-574-Tev-Flag-His) enzyme (Homo sapiens, UniProt P09958); assay: Furin enzyme assay; assay type: biochemical; conditions: for IC50: read-out: furin enzyme pIC50 (converted)
T2 construct: Furin (108-574-Tev-Flag-His) enzyme was expressed and purified from CHO cells; TEV cleavage site (C); FLAG (C); His (C); made in house; host or cells: CHO cells
T2 sequence (P09958 108-574): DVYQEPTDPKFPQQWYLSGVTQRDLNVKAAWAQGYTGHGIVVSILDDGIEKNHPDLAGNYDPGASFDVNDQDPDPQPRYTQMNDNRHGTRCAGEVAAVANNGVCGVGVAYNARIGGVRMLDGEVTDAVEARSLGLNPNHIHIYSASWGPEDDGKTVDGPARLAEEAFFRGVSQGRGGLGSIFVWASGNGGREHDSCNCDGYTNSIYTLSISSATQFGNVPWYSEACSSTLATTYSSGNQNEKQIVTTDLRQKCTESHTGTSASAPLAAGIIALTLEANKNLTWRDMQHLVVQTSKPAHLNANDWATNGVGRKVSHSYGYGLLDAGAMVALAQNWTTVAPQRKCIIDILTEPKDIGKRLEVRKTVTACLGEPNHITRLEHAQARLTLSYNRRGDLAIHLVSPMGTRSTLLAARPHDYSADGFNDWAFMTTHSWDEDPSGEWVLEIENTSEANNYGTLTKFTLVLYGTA
Procedure: Reactions were performed in black 384-well polystyrene low volume plates (Greiner). Furin (108-574-Tev-Flag-His) enzyme was expressed and purified from CHO cells. Compounds of the invention were dissolved in DMSO (1.0 mM) and serially diluted 1 to 3 with DMSO through eleven dilutions to provide a final compound concentration range from 0.00017 to 10 μM. 0.05 μL of each concentration was transferred to the corresponding well of an assay plate, and then 5 μL of 40 pM furin enzyme in assay buffer (100 mM HEPES pH7.5, 1 mM CaCl2 and 0.005% Triton X-100) was added using a Multidrop Combi (Thermo) to the compound plates, and mixed by inversion. […] The plates were centrifuged at 500×g for 1 minute and incubated at room temperature for two hours. Enzyme inhibition is then quantified using an Envision instrument (PerkinElmer).
Data were analyzed using AbaseXE 7.3, utilizing a four-parameter curve fit equation. The following values were used to define limits and/or constraints for each of the four parameters: • Minimum—limit −10 to 10 • Maximum—90 to 110 • Slope—limit 0.5 to 2.0 • pXC50 confidence interval—10
Raw counts obtained from the respective plate reader (Perkin Elmer) were captured for data analysis. Curves were generated using the equation: Y=A+[(B−A)/(1+(10^C/x)^D)] • where: A=minimum response • B=maximum response • C=log 10*XC50 • D=slope factor • x=log 10 compound concentration [M]
The results were recorded as pXC50 values (−C in the above equation)

With `CCN1CCN(c2ncc(Oc3cc(CN4CCC(CC(=O)O)CC4)cc(-c4cc(Cl)cc(Cl)c4)n3)cn2)CC1` [Example 234, 2-(1-((2-(3,5-Dichlorophenyl)-6-((2-(4-ethylpiperazin-1-yl)pyrimidin-5-yl)oxy)pyridin-4-yl)methyl)piperidin-4-yl)acetic acid] the EC50 [1] was 10 nM and the “furin enzyme pIC50” value [2] was 10.7.

With `C[N+](C)([O-])CCC1CCN(Cc2cc(Oc3ccc(N4CCNCC4)nc3)nc(-c3cc(Cl)cc(Cl)c3)c2)CC1` [Example 120, 2-(1-((2-(3,5-dichlorophenyl)-6-((6-(piperazin-1-yl)pyridin-3-yl)oxy)pyridin-4-yl)methyl)piperidin-4-yl)-N,N-dimethylethanamine oxide] the EC50 [1] was 15.8 nM and the IC50 [2] was 2 nM.

For `O=C(O)CC1CCN(Cc2cc(Oc3ccc(N4CCN5CCC4C5)nn3)nc(-c3cc(Cl)cc(Cl)c3)c2)CC1` (stereo not drawn) [Example 344, 2-(1-((2-((6-(1,4-diazabicyclo[3.2.1]octan-4-yl)pyridazin-3-yl)oxy)-6-(3,5-dichlorophenyl)pyridin-4-yl)methyl)piperidin-4-yl)acetic acid], the EC50 [1] was 79.4 nM and the “furin enzyme pIC50” value [2] was 8.4.

In the case of `CC(CC1CCN(Cc2cc(Oc3cnc(N4CCNCC4)nc3)nc(-c3cc(Cl)cc(Cl)c3)c2)CC1)C(=O)O` (stereo not drawn) [Example 269, 3-(1-((2-(3,5-dichlorophenyl)-6-((2-(piperazin-1-yl)pyrimidin-5-yl)oxy)pyridin-4-yl)methyl)piperidin-4-yl)-2-methylpropanoic acid], the EC50 [1] was 25.1 nM and the “furin enzyme pIC50” value [2] was 8.5.

With `CCN1C[C@@H]2C[C@H]1CN2c1ncc(Oc2cc(CN3CCC(CC(=O)O)CC3)cc(-c3cc(Cl)cc(Cl)c3)n2)cn1` [Example 232, 2-(1-((2-(3,5-dichlorophenyl)-6-((2-((1S,4S)-5-ethyl-2,5-diazabicyclo[2.2.1]heptan-2-yl)pyrimidin-5-yl)oxy)pyridin-4-yl)methyl)piperidin-4-yl)acetic acid] the EC50 [1] was 50.1 nM and the “furin enzyme pIC50” value [2] was 8.9.

With `CC(=O)NCC1CCN(Cc2cc(Oc3ccc(N4CCNCC4)nc3)nc(-c3cc(Cl)cc(Cl)c3)c2)CC1` [Example 9, N-((1-((2-(3,5-Dichlorophenyl)-6-((6-(piperazin-1-yl)pyridin-3-yl)oxy)pyridin-4-yl)methyl)piperidin-4-yl)methyl)acetamide, 4 hydrochloride] the EC50 [1] was 7.94 nM and the “furin enzyme pIC50” value [2] was 9.2.

In the case of `CC(CCO)N1CCN(c2ncc(Oc3cc(CN4CCC(CC(=O)O)CC4)cc(-c4cc(Cl)cc(Cl)c4)n3)cn2)CC1` (stereo not drawn) [Example 238, 2-(1-((2-(3,5-Dichlorophenyl)-6-((2-(4-(4-hydroxybutan-2-yl)piperazin-1-yl)pyrimidin-5-yl)oxy)pyridin-4-yl)methyl)piperidin-4-yl)acetic acid], the EC50 [1] was 10 nM and the “furin enzyme pIC50” value [2] was 9.8.

`CNC(=O)NCC1CCN(Cc2cc(Oc3cnc(N4CCN(CCO)CC4)nc3)cc(-c3cc(Cl)cc(Cl)c3)c2)CC1` [Example 313, 1-((1-((3′,5′-dichloro-5-((2-(4-(2-hydroxyethyl)piperazin-1-yl)pyrimidin-5-yl)oxy)-[1,1′-biphenyl]-3-yl)methyl)piperidin-4-yl)methyl)-3-methylurea] was tested, and the EC50 [1] was 15.8 nM and the IC50 [2] was < 0.158 nM.

`CCNC(=O)CC1CCN(Cc2cc(Oc3ccc(N4CCN(CCCS(C)(=O)=O)CC4)nc3)nc(-c3cc(Cl)cc(Cl)c3)c2)CC1` [Example 36, 2-(1-((2-(3,5-Dichlorophenyl)-6-((6-(4-(3-(methylsulfonyl)propyl)piperazin-1-yl)pyridin-3-yl)oxy)pyridin-4-yl)methyl)piperidin-4-yl)-N-ethylacetamide] was tested, and the EC50 [1] was 5.01 nM and the “furin enzyme pIC50” value [2] was 9.

For `CNC(=O)NCC1CCN(Cc2cc(Oc3cnc(N4CCN(CCCO)CC4)nc3)nc(-c3cc(Cl)cc(Cl)c3)c2)CC1` [Example 171, 1-((1-((2-(3,5-dichlorophenyl)-6-((2-(4-(3-hydroxypropyl)piperazin-1-yl)pyrimidin-5-yl)oxy)pyridin-4-yl)methyl)piperidin-4-yl)methyl)-3-methylurea], the EC50 [1] was 2 nM and the “furin enzyme pIC50” value [2] was 10.7.

`CCN1CCCN(c2ccc(Oc3cc(CN4CCC(CC(=O)O)CC4)cc(-c4cc(Cl)cc(Cl)c4)n3)nn2)CC1` [Example 355, 2-(1-((2-(3,5-dichlorophenyl)-6-((6-(4-ethyl-1,4-diazepan-1-yl)pyridazin-3-yl)oxy)pyridin-4-yl)methyl)piperidin-4-yl)acetic acid] was tested, and the EC50 [1] was 10 nM and the “furin enzyme pIC50” value [2] was 8.6.

In the case of `CN1CCN(c2ncc(Oc3cc(CN4CCC(OC5(C(=O)O)CC5)CC4)cc(-c4cc(Cl)cc(Cl)c4)n3)cn2)CC1` [Example 143, 1-((1-((2-(3,5-dichlorophenyl)-6-((2-(4-methylpiperazin-1-yl)pyrimidin-5-yl)oxy)pyridin-4-yl)methyl)piperidin-4-yl)oxy)cyclopropanecarboxylic acid], the EC50 [1] was 20 nM and the “furin enzyme pIC50” value [2] was 8.4.

In the case of `CN1CCN(c2ncc(N(C)c3cc(CN4CCC(CC(=O)O)CC4)cc(-c4cc(Cl)cc(Cl)c4)n3)cn2)CC1` [Example 388, 2-(1-((2-(3,5-Dichlorophenyl)-6-(methyl(2-(4-methylpiperazin-1-yl)pyrimidin-5-yl)amino)pyridin-4-yl)methyl)piperidin-4-yl)acetic acid, 4 hydrochloride], the EC50 [1] was 50.1 nM and the “furin enzyme pIC50” value [2] was 8.1.

`CC(=O)NCC1CCN(Cc2cc(Oc3ccc(N4CCN(CCC(=O)O)CC4)nn3)nc(-c3cc(Cl)cc(Cl)c3)c2)CC1` [Example 169, 3-(4-(6-((4-((4-(acetamidomethyl)piperidin-1-yl)methyl)-6-(3,5-dichlorophenyl)pyridin-2-yl)oxy)pyridazin-3-yl)piperazin-1-yl)propanoic acid] was tested, and the EC50 [1] was 1260 nM and the IC50 [2] was 0.0316 nM.

In the case of `NC1CCN(c2ncc(Oc3cc(CN4CCC(CC(=O)O)CC4)cc(-c4cc(Cl)cc(Cl)c4)n3)cn2)CC1` [Example 158, 2-(1-((2-((2-(4-Aminopiperidin-1-yl)pyrimidin-5-yl)oxy)-6-(3,5-dichlorophenyl)pyridin-4-yl)methyl)piperidin-4-yl)acetic acid], the EC50 [1] was 79.4 nM and the “furin enzyme pIC50” value [2] was 8.8.

`CN1CCN(c2ncc(Oc3cc(CN4CCC(NC(=O)NS(C)(=O)=O)CC4)cc(-c4cc(Cl)cc(Cl)c4)n3)cn2)CC1` [Example 328, N-((1-((2-(3,5-dichlorophenyl)-6-((2-(4-methylpiperazin-1-yl)pyrimidin-5-yl)oxy)pyridin-4-yl)methyl)piperidin-4-yl)carbamoyl)methanesulfonamide] was tested, and the EC50 [1] was 12.6 nM and the “furin enzyme pIC50” value [2] was 8.3.

`CN1C2CCC1CN(c1ncc(Oc3nc(-c4cc(Cl)cc(Cl)c4)cc(CN4CCC(CC(=O)O)CC4)c3F)cn1)C2` [Example 378, 2-(1-((6-(3,5-dichlorophenyl)-3-fluoro-2-((2-(8-methyl-3,8-diazabicyclo[3.2.1]octan-3-yl)pyrimidin-5-yl)oxy)pyridin-4-yl)methyl)piperidin-4-yl)acetic acid] gave an EC50 [1] of 6.31 nM and an IC50 [2] of 2 nM.

In the case of `CN1CCN(c2ncc(Oc3cc(CN4CCC(CNC(=O)NS(C)(=O)=O)CC4)cc(-c4cc(Cl)cc(Cl)c4)n3)cn2)CC1` [Example 326, N-(((1-((2-(3,5-dichlorophenyl)-6-((2-(4-methylpiperazin-1-yl)pyrimidin-5-yl)oxy)pyridin-4-yl)methyl)piperidin-4-yl)methyl)carbamoyl)methanesulfonamide], the EC50 [1] was 12.6 nM and the “furin enzyme pIC50” value [2] was 8.7.

Reference: US11773078B2, “Furin inhibitors” (Glaxosmithkline Intellectual Property Development Limited, priority 2018, dated 2023)
